How the values were obtained:
CPT1 [1] = molecular target: T1, CPT1 (Mus musculus, UniProt P97742); test: CPT1 activity in liver of BNX mice after three weeks topical treatment; format: in vivo; settings: 3 weeks, placebo set 100%
T1 construct: A small piece of frozen liver (appr. 200 mg) was homogenized in 600 μl of cold sucrose buffer; from tissue; host or cells: liver of BNX mice (mitochondrial enriched fraction)
T1 sequence (P97742 1-773): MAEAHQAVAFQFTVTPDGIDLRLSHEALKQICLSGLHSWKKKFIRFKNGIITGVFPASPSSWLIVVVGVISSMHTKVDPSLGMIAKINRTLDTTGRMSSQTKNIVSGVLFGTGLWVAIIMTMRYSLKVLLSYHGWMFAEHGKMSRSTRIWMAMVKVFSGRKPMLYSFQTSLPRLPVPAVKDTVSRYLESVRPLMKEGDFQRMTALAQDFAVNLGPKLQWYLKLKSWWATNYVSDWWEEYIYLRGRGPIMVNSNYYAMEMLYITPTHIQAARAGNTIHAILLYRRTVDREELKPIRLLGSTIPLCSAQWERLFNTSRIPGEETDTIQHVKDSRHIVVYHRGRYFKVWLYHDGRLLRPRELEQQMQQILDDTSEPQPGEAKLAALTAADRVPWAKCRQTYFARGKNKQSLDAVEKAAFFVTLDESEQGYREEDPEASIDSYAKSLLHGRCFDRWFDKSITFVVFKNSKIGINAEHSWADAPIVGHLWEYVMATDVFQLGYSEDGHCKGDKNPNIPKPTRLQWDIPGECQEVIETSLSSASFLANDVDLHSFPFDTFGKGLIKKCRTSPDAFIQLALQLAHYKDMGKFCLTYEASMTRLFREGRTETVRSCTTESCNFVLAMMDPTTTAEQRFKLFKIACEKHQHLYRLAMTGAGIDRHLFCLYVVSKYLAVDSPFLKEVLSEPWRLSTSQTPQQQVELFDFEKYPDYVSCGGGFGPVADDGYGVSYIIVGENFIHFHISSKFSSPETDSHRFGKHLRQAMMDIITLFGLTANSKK
Experimental: (§1) The psoriasis model described by Wrone-Smith and Nickoloff (1996) was used. 5 mm non-lesional skin biopsies from five psoriatic patients were each split in four pieces and transplanted on 20 immuno-deficient BNX mice, i.e. four groups of five mice each. Psoriasis was induced in all mice by injection with donors super-antigen-activated blood cells. After psoriasis had developed, mice were treated for 3 weeks by applying either placebo-cream, cream containing a corticosteroid (betamethasone), 1% Etomoxir or 30% Etomoxir daily on the skin. The cream containing 30% Etomoxir was removed after 30 minutes while the other creams were left on the skin.
(§2) After the treatment period, liver and blood of the mice were analyzed for their CPT1 activity and GOT/GPT levels. Furthermore, the epidermal thickness, in particular the depth of reti ridges, the number of Ki67 positive cells and the percentage of ULEX-positive cells (this marker stains the upper layers of the epidermis in normal skin and the whole epidermis in psoriatic skin) in the epidermis were determined.
(§3) A small piece of frozen liver (appr. 200 mg) was homogenized in 600 μl of cold sucrose buffer by 8-10 strokes with tight pestle of dounce homogenizer. Homogenate was centrifuged at 700×g for 10 min at 4° C. Supernatant was again centrifuged at 20000×g for 20 min at 4° C. Pellet was resuspended in 1400 μl buffer A and kept on ice for further analysis or stored at −80° C.
160 μl of bidestilled water was added to wells of a 96-well plate. For the standard curve 0 μg, 1 μg, 2 μg, 3 μg, 4 μg and 5 μg of BSA (BSA stock: 1 mg/ml from New England Biolabs) was added in duplicates to the first […]. 1 μl of the liver samples and the blood samples were added in duplicates to the wells. Finally 40 μl dye reagent concentrate (Bio-Rad protein assay) was added and mixed by pipetting up and down. After 5 to 30 min OD at 595 was measured versus reagent blank (0 μg BSA). For the calibration curve the OD was plotted against the concentration of BSA and total protein concentration of the liver samples was calculated in μg/μl.
20 μg of total protein of each liver sample and 300 μg of total protein of each plasma sample were added in 1.5 ml Eppendorf tubes (safe lock) and filled up to 100 μl with buffer A (all in duplicates). Background control was buffer A only. The tubes were preincubated for exactly 5 min at 30° C. prior to the addition of 105 μl of reaction mix. Again samples were incubated for exactly 5 min at 30° C. Reactions were stopped by adding 800 μl of 6% perchloric acid and stored on ice. […] Finally, either 100 μl (liver samples) or 150 μl (plasma samples) of the butanol phase were mixed with 1 ml Microscint0 in a 24 well-plate and cpm values were measured with the scintillation counter from Canberra Packard. […]

[2] = system: transplanted human psoriasis skin; test: Psoriasis model, hematoxyline staining (epidermal thickness); format: in vivo, BNX mice; settings: 3 weeks, placebo 138±24 μm; for Epidermal thickness: three mice
Experimental: as §1, §2
(§4) Histological stainings are performed on cryo-preserved tissues. Diagonal cross sections (8μm) are cut (see FIG. 20), covering all skin-layers (located at the top layer are the stratum corneus and epidermis of the transplanted human biopsy and at the bottom the murine tissue is located, forming a base for the transplanted human skin).
Sections are stained with hematoxyline and evaluated at a microscopic magnification of 200×. Two sections taken round the middle of the biopsy are evaluated. Thickness measurements are performed of the total section using a microscopic ocular with intergraded graduation-lines (ruler). From this, the average epidermal thickness measurements for ridges and the average of the total epidermis (mean of ridges and inter-ridges) are calculated in μm (taken into account magnification factor).

[3] = system: transplanted human psoriasis skin; test: Psoriasis model, Ki-67 staining (keratinocyte proliferation); format: in vivo, BNX mice; settings: 3 weeks
Experimental: as §1, §2, §4
Sections are stained with mu-∝Hu monoclonal Ab and evaluated at a microscopic magnification of 400×. Two representative sections are evaluated. The total number of positive cells are counted of the total section and indicated per unit-length. A unit-length is a microscopic view (of a part of the section) at a magnification of 400× (see FIG. 20). Per section several unit-lengths are counted (minimum of 8). From this the average number of Ki-67 positive cells per unit-length is calculated.

[4] = system: transplanted human psoriasis skin; test: Psoriasis model, ULEX staining (keratinocyte differentiation); format: in vivo, BNX mice; settings: 3 weeks, placebo 55±19%
Experimental: as §1, §2, §4
Sections are stained with biotinylated Europaeus Agglutinin 1 and evaluated at a microscopic magnification of 200×. Two representative sections are evaluated. The thickness of both the ULEX positive cell-layer (distribution of ULEX) as well as the ULEX negative layer of the total section is measured using a microscopic ocular with intergraded graduation-lines (ruler). From this the average ratio of ULEX positive differentiation is calculated (indicated as percentage of epidermis positive for ULUX).

CPT1 [5] = test: CPT1 activity in total blood cells of BNX mice after three weeks topical treatment; format: in vivo; settings: 3 weeks
Experimental: as §1
as §2, with “determined. […]” for “determined.”
160 μl of bidestilled water was added to wells of a 96-well plate. […] After 5 to 30 min OD at 595 was measured versus reagent blank (0 μg BSA). For the calibration curve the OD was plotted against the concentration of BSA and total protein concentration of the liver samples was calculated in μg/μl. […]

CPT1 [6] = test: Inhibition of CPT1 activity by the salt of Etomoxir in vitro, pooled blood cell extract; format: biochemical, BNX mice
Experimental: 500 μl of total blood cells were frozen and drawn three tines to break up the cells. Samples were diluted by adding 500 μl buffer A and then centrifuged at 20000×g for 20 min at 4° C. Solid Pellets were resuspended in 200 μl buffer A and kept on ice for further analysis or stored at −80° C.
(§5) 2 μl of a 100× stock of Etomoxir-salt (0; 0.1; 1.0 and 10 mM) dissolved in DMSO were added in 1.5 ml Eppendorf tubes in duplicates. 2× activation mix was premixed on ice with either 15 μg of total protein of each liver sample or 300 μg of total protein of each plasma sample (final volume per reaction was 98 μl). 98 μl of this mix was added to each tube containing the 2 μl of inhibitor and tubes were left at 30° C. for exactly 30 min. Then 105 μl of reaction mix were added to start the CPT1 reaction. Again samples were incubated for exactly 5 min at 30° C. […] Finally, either 150 μl of the butanol phase were mixed with 1 ml Microscint0 in a 24 well-plate and cpm values were measured with the scintillation counter from Canberra Packard. P values were calculated with the t-test of the SigmaPlot 2001 software.
(§6) To determine the sensitivity of the CPT1 activity in response to Etomoxir, cell pellet samples were pooled and treated with increasing amounts of Etomoxir. […] 85% of the measured activity in the blood cells was Etomoxir insensitive and therefore the relevance of this assay is questionable.

CPT1 [7] = molecular target: T1, CPT1; test: Inhibition of CPT1 activity by the salt of Etomoxir in vitro, mitochondrial enriched fractions of liver; format: biochemical, BNX mice
Experimental: as §3
as §5, with “min.” for “min. Then 105 μl of reaction mix were added to start the CPT1 reaction. Again samples were incubated for exactly 5 min at 30° C.”
as §6

[8] = Animal experiment, deaths during topical treatment; format: in vivo, BNX mice; settings: 30% Etomoxir cream left on the skin; probably because they licked off the cream
Experimental: as §1, with “The cream containing 30% Etomoxir was removed after 30 minutes while the other creams were left on the skin.” left out

CPT1 activity in liver compared to the placebo group (CPT1 [1]; corticosteroid (betamethasone) cream daily) [%] | SMILES | Average epidermal thickness ([2]; corticosteroid cream daily) [μm] | Number of Ki67 positive cells ([3]; corticosteroid cream daily, placebo 55±37) | Percentage of ULEX-positive cells in the epidermis ([4]; corticosteroid cream daily) [%] | CPT1 activity in liver compared to the placebo group (CPT1 [1]; 1% Etomoxir cream daily) [%] | CPT1 activity in liver compared to the placebo group (CPT1 [1]; 30% Etomoxir cream daily, excluding liver of dead animals) [%] | CPT1 activity in liver compared to the placebo group (CPT1 [1]; 30% Etomoxir cream daily, including the two dead animals) [%] | CPT1 activity in blood cell pellets versus placebo group (CPT1 [5]; 1% Etomoxir cream daily, p value 0.01) | CPT1 activity in blood cell pellets versus placebo group (CPT1 [5]; 30% Etomoxir cream daily, p value>0.05) | Reduction of CPT1 activity in pooled blood cell pellet samples (CPT1 [6]; increasing amounts of Etomoxir (salt), activity without Etomoxir = 100%) [%] | Part of the measured CPT1 activity in blood cells that is Etomoxir insensitive (CPT1 [6]; pooled cell pellet samples) [%] | Sensitivity of CPT1 activity measured in liver to Etomoxir (CPT1 [7]) | Epidermal thickness ([2]; 1% Etomoxir cream daily) [μm] | Epidermal thickness ([2]; 30% Etomoxir cream daily (removed after 30 minutes)) [μm] | Number of Ki67 positive cells as compared to the placebo group ([3]; 1% Etomoxir cream) | Number of Ki67 positive cells as compared to the placebo group ([3]; 30% Etomoxir cream) | Percentage of ULEX-positive cells in the epidermis (differentiation rate) ([4]; 1% Etomoxir cream) [%] | Percentage of ULEX-positive cells in the epidermis (differentiation rate) ([4]; 30% Etomoxir cream) [%] | Deaths of animals [8]
83 | C[C@H]1C[C@H]2[C@@H]3CCC4=CC(=O)C=C[C@]4(C)[C@@]3(F)[C@@H](O)C[C@]2(C)[C@@]1(O)C(=O)CO [corticosteroid, betamethasone] | 81±9 | 10±6 positive cells/unit-length | 24±7 | – | – | – | – | – | – | – | – | – | – | – | – | – | – | –
– | CCOC(=O)C1(CCCCCCOc2ccc(Cl)cc2)CO1 (stereo not shown) [Etomoxir, 2-(6-(4-chlorophenoxy)hexyl)oxirane-2-carboxylic acid ethyl ester] | – | – | – | 73 | 59 | 40 | significantly higher | not significantly different | ~15 | ~85 | highly Etomoxir sensitive | 88±10 | 69±4 | significant decrease | significant decrease | 17±11 | 18±8 | two out of five animals died

— patent US7528168B2, “Inhibitors of the fatty acid oxidation for the prophylaxis and/or the treatment of chronic and/or atopic skin diseases” (priority 2002, dated 2009)
